Laboratory results: article PMC8765435, “In Vitro Antimalarial Activity of Inhibitors of the Human GTPase Rac1” (Antimicrobial Agents and Chemotherapy, 2022)
Where two headings read alike, the source gives them in different places.

Experiments:
[1] = system: P. falciparum asexual parasites, chloroquine-resistant W2 strain; test: Drug susceptibility assay (pLDH), asexual parasites, W2 strain; format: cell-based, Plasmodium falciparum
Experimental: (§1) Chloroquine (CQ)-sensitive (D10, wild-type 3D7, or transgenic 3D7elo1-pfs16-CBG99) and CQ-resistant (W2) strains of P. falciparum were cultured as described previously ([58]), with slight modifications, as detailed in the supplemental material.
(§2) Asexual parasite growth was determined spectrophotometrically (optical density at 650 nm [OD650]) by measuring the activity of parasite lactate dehydrogenase (pLDH), according to a modified version of the method of Makler et al. ([59]). Gametocyte viability was measured by a luminescence method described previously ([60]). Details for the two methods are reported in the supplemental material. From either the OD or ALU (arbitrary luminescence units), the percentages of viability were calculated according to the formula 100 × (treated sample signal − blank signal)/(untreated control signal − blank signal). The blank for the pLDH assay was uninfected RBCs at the same hematocrit as that of parasitized RBCs, and the blank for the luminescence assay was parasites treated with a high dose of methylene blue. […]
(§3) The CQ-sensitive (D10) and the CQ-resistant (W2) strains were maintained at 5% hematocrit […]
(§4) supplemented with 1% AlbuMaxII (lipid-rich bovine serum albumin) (Invitrogen), 0.01% hypoxantine (Sigma), 20mM Hepes (EuroClone), 2 mM glutamine (EuroClone). […]
(§5) In vitro P. falciparum drug susceptibility assay […]
(§6) plate were transferred to a plate containing 100µl of Malstat reagent (0.11% [vol/vol] Triton- […]
(§7) dinucleotide [APAD] [Sigma-Aldrich], adjusted to pH 9 with 1 M HCl) and 25 µl of PES/NBT […]
(§8) pLDHassay. The plate was read at a wavelength of 650 nm using a microplate reader, Synergy4 […]
(§9) Uninfected RBC at the same HCT than parasites were used as blank. […]

[2] = system: 3D7 immature gametocytes; test: Gametocyte viability luminescence assay, immature gametocytes; format: cell-based, Plasmodium falciparum; details: 72 h, read-out: Mean IC50 ± SD, 3D7 immature gametocytes
Experimental: as §1, §2
(§10) strain (wild type or transgenic 3D7elo1-pfs16-CBG99 strain) was cultured in similar conditions, except for 10% naturally clotted Human O+ serum instead of AlbuMaxII and human type O-positive instead of A-positive RBCs. […]
(§11) in a standard gas mixture consisting of 1% O2, 5% CO2, 94% N2. Immature (stage II-III) and mature (stage V) gametocytes were obtained as described1. Briefly, cultures were diluted to 0.5% parasitemia at 5% HCT, and the medium was changed daily until parasites were stressed by nutrient deprivation. N-acetylglucosamine (NAG) (Sigma-Aldrich) 50 mM was then added to clear residual asexual parasites: Stage II and III gametocytes were obtained 4 days after NAG addition to the culture, while stage IV and V gametocytes were used 11 to 13 days from NAG addition. Gametocyte stages were routinely checked on Giemsa-stained smears. […]
(§12) Drug treated gametocyte cultures were transferred to 96-well black microplates and D-luciferin (1 mM in citrate buffer 0.1 M, pH 5.5) was added at a 1:1 volume ratio. Luminescence measurements were performed after 10 min with 500 ms integration time. Gametocytes treated

[3] = system: 3D7 mature gametocytes; test: Gametocyte viability luminescence assay, mature gametocytes; format: cell-based, Plasmodium falciparum
Experimental: as §1, §2, §10, §11, §12

[4] = system: HMEC-1 human microvascular endothelial cells; test: Cell cytotoxicity MTT assay; format: cell-based; details: for IC50: read-out: Mean HMEC-1 IC50 ± SD; for SI (selectivity index): ratio IC50 against HMEC-1 cells / IC50 against D10 asexual parasites
Experimental: Cytotoxicity was evaluated on human microvascular endothelial cells (HMEC-1) as detailed in the supplemental material. […] Plates were then read on a microplate reader (Synergy 4; BioTek) at a wavelength of 550 nm (reference, 650 nm). […] All tests were performed in duplicate at least three times.
The selectivity index (SI) is the ratio between the cytotoxic IC50 value against HMEC-1 cells and the parasitic IC50 value against the D10 strain and indicates the compound selectivity for the parasite.
Cytotoxicity was evaluated on Human Microvascular Endothelial Cells (HMEC-1) maintained
and 2 mM L-glutamine. Cells were seeded in 96 well flat bottom tissue culture clusters (1.5x104
cells/well), let adhere overnight and treated with serial dilutions of test compounds . […]

[5] = molecular target: T1, Rac1 (Homo sapiens, UniProt P63000); design: endogenous in cells; method as in PMID 24040362; details: Rac1 activity in 22Rv1 human prostate cancer cells; cited from earlier work
[6] = system: P. falciparum asexual parasites, chloroquine-sensitive D10 strain; test: Drug susceptibility assay (pLDH), asexual parasites, D10 strain; format: cell-based, Plasmodium falciparum; details: for antimalarial activity (in words): asexual and sexual P. falciparum parasites
Experimental: as §1, §2, §3, §4, §5, §6, §7, §8, §9

[7] = system: P. falciparum asexual parasites, chloroquine-sensitive D10 strain; design: method as in PMID 33328606; details: reported previously, read-out: Mean IC50 ± SD, D10; cited from earlier work
[8] = system: P. falciparum asexual parasites, chloroquine-resistant W2 strain; design: method as in PMID 33328606; details: reported previously, read-out: Mean IC50 ± SD, W2; cited from earlier work
[9] = system: F3II mammary carcinoma cells; design: method as in PMID 24066799; details: F3II mammary carcinoma cell proliferation; cited from earlier work
[10] = system: Rac1; design: method as in PMID 17932039; details: Rac1 activity in U87MG glioma cells; cited from earlier work
[11] = system: REF-52 rat embryo fibroblasts; design: method as in PMID 19549603; details: Actin stress fiber formation in REF-52 rat embryo fibroblasts; cited from earlier work
[12] = system: Rac1; design: method as in PMID 21433368; details: Rac1 activity in EGF-stimulated NIH 3T3 fibroblasts; cited from earlier work
[13] = system: Rac1; design: method as in PMID 20008126; details: Rac1 activity in Swiss 3T3 embryonic mouse fibroblasts; cited from earlier work
[14] = system: Rac1; design: method as in PMID 15128949; details: Rac1 activity in PDGF-stimulated NIH 3T3 fibroblasts; cited from earlier work
[15] = molecular target: T1, Rac1; design: endogenous in cells; details: Rac1 activity in human smooth muscle cells; cited from earlier work
[16] = Plasmodium falciparum, W2, 72 h, asexual parasites, CQ-resistant W2 strain, 72 h, pLDH, read-out: Mean IC50 ± SD, W2
[17] = asexual parasites, CQ-resistant W2 strain, 72 h, pLDH, read-out: Mean IC50 ± SD, W2
[18] = Plasmodium falciparum, 3D7, stage II-III gametocytes
[19] = Plasmodium falciparum, 3D7, stage V gametocytes, 72 h, luminescence, read-out: Mean IC50 ± SD, 3D7 mature gametocytes
[20] = Homo sapiens, HMEC-1, MTT, 72 h
[21] = stage V gametocytes, 72 h, luminescence, read-out: Mean IC50 ± SD, 3D7 mature gametocytes
[22] = asexual parasites, CQ-sensitive D10 strain, 72 h, pLDH, read-out: Mean IC50 ± SD, D10

SMILES: Cc1cc2cc(Nc3ccnc(Nc4ccc5[nH]c(C)cc5c4)n3)ccc2[nH]1 [Aza-1]
- IC50 [1, 16]: < 1 µM
- IC50 [1, 17]: 0.76 ± 0.27 µM
- IC50 [2, 18]: 1.25 ± 0.48 µM
- IC50 [3, 19]: 7.23 ± 2.12 µM
- IC50 [4, 20]: 12.3 ± 6.11 µM
- SI (selectivity index) [4]: 48.9
- IC50 [5]: 5 to 20 µM

SMILES: CCN(CC)CCCC(C)Nc1ccnc2cc(Cl)ccc12 (stereo not drawn) [Chloroquine]
- IC50 ([6]; Plasmodium falciparum, D10, 72 h, read-out: Mean IC50 ± SD, D10): 0.02 ± 0.003 µM
- IC50 ([1]; Plasmodium falciparum, W2, 72 h, read-out: Mean IC50 ± SD, W2): 0.42 ± 0.08 µM

SMILES: Cc1cc(C)cc(NC(N)=Nc2ccccc2C(F)(F)F)c1 [Compound 1A116]
- IC50 ([2]; stage II-III gametocytes): 78.1 ± 17.7 µM
- IC50 [3, 21]: 56.6 ± 21.3 µM
- IC50 ([4]; MTT, 72 h): 132 ± 37.3 µM
- IC50 [7]: 3.21 ± 1.17 µM
- IC50 [8]: 6.89 ± 1.41 µM
- IC50 [9]: 4 µM

SMILES: CC1CCCN(S(=O)(=O)c2ccc(NC(=O)c3cc(-c4ccccc4O)n[nH]3)cc2)C1 (stereo not drawn) [Compound 3]
- IC50 ([6]; Plasmodium falciparum, D10, 72 h, read-out: Mean IC50 ± SD, D10, asexual parasites, CQ-sensitive D10 strain, 72 h, pLDH): < 1 µM
- IC50 ([6]; read-out: Mean IC50 ± SD, D10, asexual parasites, CQ-sensitive D10 strain, 72 h, pLDH): 0.66 ± 0.05 µM
- IC50 ([1]; Plasmodium falciparum, W2, 72 h, read-out: Mean IC50 ± SD, W2, asexual parasites, CQ-resistant W2 strain, 72 h, pLDH): < 1 µM
- IC50 ([1]; read-out: Mean IC50 ± SD, W2, asexual parasites, CQ-resistant W2 strain, 72 h, pLDH): 0.52 ± 0.02 µM
- IC50 [2, 18]: 2.26 ± 0.22 µM
- IC50 [3, 19]: 21.9 ± 2.71 µM
- IC50 ([4]; Homo sapiens, HMEC-1, 72 h): 10.6 ± 1.19 µM
- melting point: 254 to 258 °C

SMILES: CC1CCCN(S(=O)(=O)c2cccc(NC(=O)c3cc(-c4ccccc4O)n[nH]3)c2)C1 (stereo not drawn) [Compound 3′]
- IC50 ([6]; Plasmodium falciparum, D10, 72 h, asexual parasites, CQ-sensitive D10 strain, 72 h, pLDH, read-out: Mean IC50 ± SD, D10): 2.76 ± 0.12 µM
- IC50 [1, 16]: 1.24 ± 0.13 µM
- IC50 [2, 18]: 2.13 ± 0.43 µM
- IC50 [3, 19]: 26.6 ± 3.7 µM
- IC50 [4, 20]: 16 ± 0.44 µM
- SI (selectivity index) [4]: 5.8

SMILES: O=c1cc(CN2CCOCC2)occ1OCCCCCSc1ccnc2cc(C(F)(F)F)ccc12 [EHT1864]
- IC50 ([2]; stage II-III gametocytes): > 50 µM
- IC50 [3, 21]: 32.6 ± 0.92 µM
- IC50 ([4]; MTT, 72 h): 48.5 ± 1.23 µM
- IC50 [7]: 3.88 ± 0.74 µM
- IC50 [8]: 7.75 ± 1.82 µM
- IC50 [10]: 10 to 50 µM

SMILES: Cc1cc(/C=c2/sc3nc4ccccc4n3c2=O)c(C)n1-c1ccccc1 [ITX3]
- antimalarial activity (in words) [6]: no effect
- IC50 [6, 22]: > 50 µM
- IC50 [1, 17]: > 50 µM
- IC50 [11]: 50 to 100 µM

SMILES: COc1ccc(C2CC(c3ccccc3)=NN2c2ccc(S(N)(=O)=O)cc2)cc1 (stereo not drawn) [ML141]
- IC50 [6, 22]: 10.7 ± 0.29 µM
- IC50 [1, 17]: 17.3 ± 1.84 µM
- IC50 [12]: ~10 µM

SMILES: O=C(C#Cc1ccccc1)c1cccc([N+](=O)[O-])c1 [MLS000532223]
- IC50 [6, 22]: 6.89 ± 0.73 µM
- IC50 [1, 17]: 9.51 ± 1.66 µM
- IC50 [13]: ~10 µM

SMILES: CN(C)c1ccc2nc3ccc(=[N+](C)C)cc-3sc2c1 [Methylene blue]
- IC50 [2, 18]: 0.03 ± 0.01 µM
- IC50 [3, 19]: 0.12 ± 0.03 µM

SMILES: CCN(CC)CCCC(C)Nc1nc(C)cc(Nc2ccc3nc(C)cc(N)c3c2)n1 (stereo not drawn) [NSC23766]
- IC50 [6, 22]: 5.02 ± 1.47 µM
- IC50 [1, 17]: 4.05 ± 0.5 µM
- IC50 ([2]; stage II-III gametocytes): 15.3 ± 3.7 µM
- IC50 [3, 21]: 30.8 ± 3.09 µM
- IC50 ([4]; MTT, 72 h): 154 ± 38.5 µM

SMILES: Cc1ccc(NC(=O)c2cccc(OCc3c(C)noc3C)c2)cc1S(N)(=O)=O [Rac1 inhibitor II]
- IC50 [6, 22]: 11.9 ± 7.37 µM
- IC50 [1, 17]: 37.5 ± 8.67 µM
- IC50 [15]: 12.2 µM

SMILES: Cc1cc(C)nc(NS(=O)(=O)c2ccc(NC(=S)NC(=O)COc3ccc(Br)cc3Cl)cc2)n1 [ZCL278]
- antimalarial activity (in words) [6]: not active
- IC50 [6, 22]: > 50 µM
- IC50 [1, 17]: > 50 µM
- IC50 ([3]; Table S2, CDC42 inhibitors, read-out: IC50, 3D7 mature gametocytes): 63.5 ± 27.3 µM

SMILES: Cc1cc(C)nc(N=C(N)Nc2ccccc2C(F)(F)F)n1 [ZINC69391]
- IC50 [6, 22]: 17.5 ± 4.64 µM
- IC50 [1, 17]: 12.6 ± 5.25 µM
- IC50 [9]: 61 µM
